These results are taken from patent US9371301B2, “Prenylarene compound and use thereof” (Osaka University, priority 2010, dated 2016).

“Also recorded” adds a separate entry of the source.

Data set [1] has as its system human prostate cancer DU145 cells. The experiment in a line: Selective inhibitory activity on hypoxic cancer cell growth (MTT, hypoxic conditions 1% O2). It counts as cell-based. The settings on record: for selective inhibitory activity on hypoxic cell growth: 24 h, MTT. How it is done:
(§1) Analog-k5, which is represented by formula (II), and analog-k6, which is represented by formula (III), were used as test compounds and furospinosulin-1 was used as the control compound. The test compounds and the control compound were separately dissolved in EtOH, and the respective solutions were prepared at predetermined concentrations. The cells used were human prostate cancer DU145 cells. Analog-k6 was synthesized according to the method described in Example 1 for synthesis of analog-k5 except for using 3-bromothiophene instead of 3-bromofuran.
To each well of 96-well multiwell plates, 200 μL (1×10^4 cells/well) of a DU145 cell suspension was added, and preculture was performed under conditions of 5% CO2 and 37° C. for 4 hours. Then, the multiwell plates were placed in a hypoxic culture chamber (manufactured by Mitsubishi Gas Chemical Company, Inc.) of 1% O2, 5% CO2 and 94% N2 (hypoxic conditions) and culture was performed for 12 hours. Then, the test compound solutions in EtOH were added to the corresponding wells in a volume of 2 μL per well, and culture was further continued under hypoxic conditions for 24 hours. After 24 hours of culture, MTT (3-(4,5-dimethylthiazol-2-yl)-2,5-diphenyltetrazolium bromide) reagent prepared at 200 μg/mL was added in a volume of 50 μL per well, and culture was performed under conditions of 5% CO2 and 37° C. for 3 hours. Next, after removal of the culture medium, the resulting MTT formazan was extracted with 200 μL of DMSO per well. The amount of the formazan dye was quantified by a colorimetric method (OD 560 nm) and the ratio of growth inhibition was calculated.
(§2) Analog-f9, which is represented by formula (VI), and analog-k13, which is represented by formula (CI), were used as the test compounds, and both were evaluated for the selective inhibitory activity on hypoxic cancer cell growth according to the same method as described in Example 5.

Data set [2] has the same test system. Nature of the data set: Inhibitory activity on normoxic cell growth (MTT). In kind it is cell-based. The settings on record: for inhibitory activity on normoxic cell growth / inhibitory activity on normoxic cell growth as compared with furospinosulin-1: DU145; for inhibitory activity on normoxic cell growth as compared with furospinosulin-1: in a high dose. The protocol:
as §1
Meanwhile, the inhibitory activity of the test compounds on normoxic cell growth was measured in the following manner. To each well of 96-well multiwell plates, 200 μL (1×10^4 cells/well) of a DU145 cell suspension was added, and culture was performed under conditions of 5% CO2 and 37° C. for 12 hours. Then, the test compound solutions in EtOH were added to the corresponding wells in a volume of 2 μL per well, and culture was further continued under the same conditions for 24 hours. After 24 hours of culture, as is the case in hypoxic conditions, the MTT reagent was added and finally the ratio of growth inhibition was calculated.
as §2

The subject of data set [3] is Mouse sarcoma S180 cells. Nature of the data set: Antitumor activity in mouse cancer cell transplant model. In kind it is in vivo. The settings on record: ddY mice; for tumor weight, % of that of the control group / weight loss, diarrhea, visual abnormalities in organs: once every two days, 7 times; for tumor weight, % of that of the control group: S180; for weight loss, diarrhea, visual abnormalities in organs: all dose groups; for weight loss, diarrhea, visual abnormalities in organs / antitumor activity: oral; for antitumor activity: S180 transplant model. The protocol:
A suspension of the test compound analog-k5 was prepared at predetermined concentrations in 1% CMC. The vehicle (1% CMC) was administered to the control group.
Mouse sarcoma S180 cells were prepared as a suspension of the density of 1×10^7 cells/mL in a serum-free RPMI culture medium and the suspension was kept on ice. Then, 100 μL (1×10^6 cells) each of the cell suspension was subcutaneously inoculated to the ventral side in female ddY mice (5-week old, six mice/group) with an injection needle of 23G. The mice were maintained for one week for engraftment of the […]. The test compound (10 mg/kg, 25 mg/kg and 50 mg/kg) or the vehicle (1% CMC) was orally administered on a schedule of once every two days, 7 times in total. The antitumor activity was evaluated as follows: one day after the final administration, tumors were isolated and weighed and then the tumor weight was compared between the test compound administration groups and the control group. Significance analysis was performed using a Dunnett's test at a significance level of 5%.
Analog-f9, which is represented by formula (VI), and analog-k13, which is represented by formula (CI), were used as the test compounds, and both were evaluated for the antitumor activity in a mouse cancer cell transplant model according to the same method as described in Example 6. However, the number of mice per group was changed to four, and the doses of test compounds were changed to 3 mg/kg, 10 mg/kg and 25 mg/kg.

Data set [4] concerns human prostate cancer DU145 cells. The settings on record: Non Patent Literature 4; cited from earlier work.
For data set [5], the system named is Mouse sarcoma S180 cells. The settings on record: mice subcutaneously inoculated with S180 cells; Non Patent Literature 4; cited from earlier work.
In data set [6] the test system is insulin-like growth factor 2 (IGF-2). The settings on record: mechanism of action; Non Patent Literature 4; cited from earlier work.
The mark [7] stands for this setting: at 1000 μM, DU145, hypoxic (1% O2) vs normoxic.

Take `CC(C)=CCC/C(C)=C/CC/C(C)=C/CC/C(C)=C/CC/C(C)=C/CCc1ccsc1` [analog-f9]: the “selective inhibitory activity on hypoxic cell growth” value (from here on “selective inhibitory activity”) in data set [1] (setting [7]) was “showed selective inhibitory activity on hypoxic cell growth”. For the same compound, the “inhibitory activity on normoxic cell growth” value in data set [2] (concentrations of 10 μM or lower) is listed as “hardly inhibits normoxic cell growth”; in data set [2] (concentrations of 100 μM or lower), “remarkably low inhibitory activity on normoxic cell growth”. For the same compound, the “inhibitory activity on normoxic cell growth as compared with furospinosulin-1” value in data set [2] is “lower inhibitory activity on normoxic cell growth”. The “tumor weight, % of that of the control group” value (“tumor weight, %” below) in the data set on Mouse sarcoma S180 cells [3] (10 mg/kg oral) was found to be 29%; in the data set on Mouse sarcoma S180 cells [3] (25 mg/kg oral) it was 18%. Besides, the “weight loss, diarrhea, visual abnormalities in organs” value with Mouse sarcoma S180 cells [3] is “In no administration groups, regardless of the kind of test compound, weight loss or diarrhea, or visual abnormalities in organs of the mice were observed”.
As for `CC(C)=CCC/C(C)=C/CC/C(C)=C/CC/C=C/CCc1ccoc1` [analog-k5], the “selective inhibitory activity” value in data set [1] (setting [7]) is reported as “showed selective inhibitory activity on hypoxic cell growth”. The “inhibitory activity on normoxic cell growth as compared with furospinosulin-1” value in data set [2] is on record as “lower inhibitory activity on normoxic cell growth”. In addition, the “tumor weight, %” value in the data set on Mouse sarcoma S180 cells [3] (10 mg/kg oral) came to 70%; in the data set on Mouse sarcoma S180 cells [3] (25 mg/kg oral) it was 41%; in the data set with Mouse sarcoma S180 cells [3] (50 mg/kg oral) it was 28%. Moreover, in the data set with Mouse sarcoma S180 cells [3], the “weight loss, diarrhea, visual abnormalities in organs” value is “In no administration groups, weight loss or diarrhea, or visual abnormalities in organs of the mice were observed”. For the same compound, in the data set with Mouse sarcoma S180 cells [3], the antitumor activity result is “showed marked antitumor activity”.
Consider `CC(C)=CCC/C(C)=C/CC/C(C)=C/CC/C=C/CCc1ccsc1` [analog-k6], for which, in data set [1] (setting [7]), the “selective inhibitory activity” value is reported as “showed selective inhibitory activity on hypoxic cell growth”. In data set [2], the “inhibitory activity on normoxic cell growth as compared with furospinosulin-1” value is on record as “lower inhibitory activity on normoxic cell growth”.
Regarding `C#CCC/C(C)=C/CC/C(C)=C/CC/C(C)=C/CC/C(C)=C/CCc1ccoc1` [analog-k13], the “selective inhibitory activity” value in data set [1] (setting [7]) is given as “showed selective inhibitory activity on hypoxic cell growth”. Besides, in data set [1] (entire range of tested concentrations, DU145), the “selective inhibition of hypoxic cell growth compared with furospinosulin-1” value is reported as “stronger than that of furospinosulin-1”. Also, in data set [2], the “inhibitory activity on normoxic cell growth as compared with furospinosulin-1” value was “lower inhibitory activity on normoxic cell growth”. Besides, the figures for the “tumor weight, %” value with Mouse sarcoma S180 cells [3] (3 mg/kg oral), in the data set with Mouse sarcoma S180 cells [3] (10 mg/kg oral) and with Mouse sarcoma S180 cells [3] (25 mg/kg oral) were 70%, 41% and 28%, respectively. The “weight loss, diarrhea, visual abnormalities in organs” value with Mouse sarcoma S180 cells [3] is “In no administration groups, regardless of the kind of test compound, weight loss or diarrhea, or visual abnormalities in organs of the mice were observed”. In the data set with Mouse sarcoma S180 cells [3], the antitumor activity result is “showed marked antitumor activity”.
On to `CC(C)=CCC/C(C)=C/CC/C(C)=C/CC/C(C)=C/CCc1ccoc1` [furospinosulin-1, reference compound], for which the “selective inhibitory activity” value is “equal growth inhibitory activity against normoxic cells and hypoxic cells; also recorded: not selective for hypoxic cells” in data set [1] (setting [7]); “showed selective inhibitory activity on hypoxic cell growth” in data set [1] (concentrations of 300 μM or lower, DU145, hypoxic vs normoxic). Further, in data set [2] (at 1000 μM, DU145, 24 h, MTT), the “growth inhibitory activity against normoxic cells” value is “showed growth inhibitory activity even against normoxic cells”. The “in vitro cancer cell growth inhibition, hypoxia selectivity” value in data set [4] was “inhibits in vitro cancer cell growth in a hypoxia-selective manner”. Further, the “in vivo tumor weight as compared with the control” value with Mouse sarcoma S180 cells [5] was “significantly reduces in vivo tumor weight”. Further, the “hypoxia-inducible expression of IGF-2” value in data set [6] was “inhibition of hypoxia-inducible expression of insulin-like growth factor 2 (IGF-2)”.
